Reference: US10105414B2, “Peptides derived from RS1 which down-regulate glucose absorption after a glucose rich meal and increase insulin sensitivity” (Julius-Maximilians-Universität Würzburg, priority 2014, dated 2018)
Read-outs that look alike come from different tables or passages of the source.

Tests used:
[1] = tested on: hSGLT1; assay: hSGLT1-mediated AMG uptake in Xenopus laevis oocytes 1 h after injection of peptides; type: cell-based, human; conditions: for down-regulation of hSGLT1: without injection of AMG (<10 μM); for affinity for down-regulation of hSGLT1 compared with hRS1-Reg wildtype: low intracellular glucose; for effect of intracellular AMG on the affinity for down-regulation of hSGLT1: without versus with injection of AMG
Procedure: (§1) Selected oocytes were injected with 50 nl of water containing cRNAs (2.5 ng of hSGLT1 or 0.5 ng of hCNT1). For expression oocytes were incubated for 2-3 days at 16° C. in modified Barth's solution with gentamycin. Noninjected control oocytes were incubated in parallel.
(§2) Before uptake measurements were started, 50 nl of K-Ori buffer containing peptides, polypeptides, 1 pM of calmodulin stimulated kinase 2 (CK2) inhibitor KN93 (Calbiochem San Diego. Calif.), 3 mM of the omithinedecarboxlase inhibitor difluoromethylornithine DFMO and/or or 100 pmol α-methyl-α-D-glucopyranoside (AMG) were injected and the oocytes were incubated for 1 h at room temperature. Uptake was measured in Ori buffer at room temperature. Measurements in transporter expressing oocytes were corrected for measurements in noninjected oocytes. Uptake of 50 μM [^14C]AMG was measured after 15 min incubation and washing in ice-cold Ori buffer containing 1 mM phlorizin. Uptake of 5 μM [^3H]uridine was measured after 15 min incubation and washing in ice-cold Ori buffer. Oocytes were solubilized in 5% (w/v) SDS and analyzed for radioactivity by scintillation counting.
(§3) For comparison of mean values from 2 groups the Student's t-test for unpaired samples was employed.

[2] = tested on: mSGLT1; conditions: 5 mM tripeptide, 30 min, 37° C., 5 mM D-glucose
Procedure: (§4) Standardised t areas of human small intestinal mucosa (FIGS. 13,19) or 1 cm segments of everted mouse small intestine (FIGS. 14,15,20) were washed three times at 37° C. with Krebs-Ringer buffer containing 5 mM D-glucose and incubated for 30 min at 37° C. in Krebs-Ringer buffer containing 5 mM D-glucose plus different concentrations of tripeptides. Thereafter the tissue was washed three times at 0° C. in Krebs-Ringer buffer without glucose and uptake measurements were performed.
(§5) For measurement of SGLT1 mediated glucose uptake, the everted segments of mouse small intestine or defined areas of human mucosa were incubated for 2 min at 37° C. with Krebs-Ringer buffer containing 10 μM [^14C]AMG with or without 0.2 mM phlorizin. Uptake was stopped by transferring the segments into ice cold Krebs-Ringer buffer containing 0.2 mM phlorizin for 5 min. After washing with ice cold Krebs-Ringer buffer the intestinal segments or pieces of human mucosa were dissolved in 0.5 ml Soluence-350) (Perkin Elmer Inc. Waltham Mass., USA). Radioactivity was analysed by liquid scintillation counting. Phlorizin inhibited AMG uptake per cm length or per standard area of the mucosa was calculated.
Thereafter the segments were washed with PBS buffer and phlorizin inhibited uptake of 10 μM [^14C]AMG was measured.

[3] = tested on: hSGLT1; conditions: 5 mM D-glucose, 30 min
Procedure: Jejunal segments which were routinely dissected during bariatric operations of highly obese patients were stored for 1-3 h on ice in Dulbecco's modified Eagle's medium containing 5 mM D-glucose. The mucosa was isolated and circular areas of the mucosa were dissected using a punching instrument.
as §4, §5
Next, it was investigated which of the QXP-type tripeptides are capable to downregulate hSGLT1 expression in human small intestine in the presence of high glucose. Jejunal samples that were obtained during bariatric surgery of obese patients (males and females with a mean age of 50 years with a mean body mass index of 50) were used. […] A part of the jejumum which is routinely removed during bariatric surgery, was carried to the laboratory using ice-cold culture medium containing 6 mM D-glucose. Part of the mucosa was dissected and identical areas of the mucosa were isolated using a punching instrument. The mucosal pieces were washed with glucose free buffer and incubated for 30 min at 37° C. in tissue culture medium (pH 6.4) containing 5 mM D-glucose and different QXP-type tripeptides. Thereafter the sample were washed two times with PBS buffer (pH 7.4, 37° C.) and incubated for 2 min at 37° C. in PBS (pH 7.4) containing 100 mM sodium and 10 μM [^14C]AMG. The incubation was performed in the absence and presence of 200 μM of the SGLT1 inhibitor phlorizin. Thereafter the samples were washed with ice-cold PBS, the tissue was dissolved, and radioactivity was determined by liquid scintillation counting. The phorizin inhibited AMG uptake was calculated.

[4] = tested on: hCNT1; assay: hCNT1-mediated uridine uptake in Xenopus laevis oocytes after injection of peptides; type: cell-based, human; conditions: no AMG injected; for uptake of 5 μM [3H]uridine expressed by hCNT1: low intracellular glucose
Procedure: as §1, §2, §3

[5] = tested on: hCNT3; assay: hCNT3-mediated uridine uptake in Xenopus laevis oocytes after injection of peptides; type: cell-based, human; conditions: low intracellular glucose, no AMG injected
Procedure: FIG. 9. […] Posttransciptional downregulation of hCNT1 and hCNT3 was measured without injection of AMG. […] One hour later uptake of 5 μM [^3H]uridine was measured.
as §2

[6] = tested on: mSGLT1; conditions: RS1−/− mice starved over night; gavage 20 μmol per mouse; after 2 h
Procedure: as §5
After 2 h the animals were killed, their small intestines were everted and phlorizin inhibited uptake of 10 μM [^14C]AMG Into segments of the everted jejunum was measured (FIG. 12A).

[7] = tested on: hSGLT1; conditions: cited from earlier work
[8] = tested on: mSGLT1; assay: Phlorizin inhibited AMG uptake into everted small intestine after gavage of mice with mRS1-Reg coupled to hydrogel nanoparticles; type: in vivo, mouse; conditions: gavage 1 nmol coupled to nanoparticles, 2 h
Procedure: Inversed miniemulsions were prepared from 2.5 ml hexane containing 50.3 mg Span 80 (Sigma, Taufkirchen, Germany) and 16.7 mg TWEEN 80™ (Sigma) and 0.4 ml 20 mM Hepes pH 7.4 containing 100 mg of thiol-functionalized linear poly(glycidol) polymer (Groll (2009) Journal of Polymer Science 47,5543-5549), 0.5 mg […] (TAT-peptide, Peptides International, Louisville, Ky., USA), and 0.28 mg cysteine-terminated RS1-Reg peptide. In control nanohydrogels the RS1-Reg peptide was omitted. The nanogels were prepared as described (Groll (2009) Journal of Polymer Science 47,5543-5549). Shortly, the organic and aqueous phase were combined, stirred, and a miniemulsion was prepared by ultrasonication at 0° C. For formation of disulphide bridges 60 μL of 0.1 M H2O2 in water were added. The mixture was sonicated for 60 s and incubated for 25 min at room temperature. Oxidation was quenched by acidification and the nanogels were separated by centrifugation. The aqueous layer containing the nanogels was separated and washed four times with a tetrahydrofuran/water (20%/80%)-mixture to remove the surfactants and unreacted polymer. Remaining organic solvents and acid were removed by dialysis against water. The nanohydrogel suspension was stored up to two weeks stored at 4° C.
Male Rs1−/− mice or wildtype mice (Osswald (2005) Mol Cell Biol. 25, 78-87) kept on standard diet were starved over night and gavaged with 200 μl water (adjusted with HCl to pH 5.5) containing 10 mg nanohydrohydrogel that was loaded with 45 μg mRS1-Reg mutant. As a control unloaded nanohydrogel was used. […] The jejunum was cut into 1 cm long segments.
Radioactivity was analysed by liquid scintillation counting.
RS1−/− mice starved overnight were gavaged with 200 μl empty NPs (control) or 200 μl NPs loaded with 1 nmol mRS1-Reg(S19A) or 1 nmol mRS1-Reg(S19E). […] 2 h after gavage with mRS1-Reg mutants coupled to NPs, phlorizin (200 μM) Inhibited uptake of 10 μM AMG labelled containing tracer [^14C]AMG after 2 min incubation at 37° C. (FIG. 21A, C) or uptake of 1 mM AMG labelled with tracer [^14C]AMG after 2 min incubation at 37° C. was measured (FIG. 21B, D). […] Since AMG is rapidly transported by mSGLT1 into the enterocytes the intracellular concentration increases within seconds to values higher than 0.25 mM when the cells were incubated with 1 mM AMG. […] In contrast phlorizin-inhibited uptake of 10 μM AMG or 1 mM AMG was inhibited by 26 and 30% respectively. […] The data further indicate that gavage of a mouse with 1 nmol mRS1-Reg(S19E) is sufficient to downregulate SGLT1 in the presence of low and high intracelluar glucose.

[9] = 5 pM, intracellular AMG ~0.25 mM

In the case of “glutamine-serinethiophosphate-proline [QSthiophosphateP]”, the “degree of down-regulation of hSGLT1” value [1, 9] is reported as about 75%, the “down-regulation of hSGLT1 expression” value [1, 9] is reported as “down-regulated” and the “down-regulation of hSGLT1” value ([1]; 5 pM) is reported as “not”. For the same molecule, the “down-regulation of hSGLT1 expression” value ([1]; 500 pM, intracellular AMG ~0.25 mM) was “down-regulated”, the “down-regulation of hSGLT1” value ([1]; 500 pM) was “down-regulated” and the “decrease of SGLT1 mediated uptake of 10 μM [14C]AMG” value ([2]; RS1−/− mice) was “significantly inhibited”. For the same molecule, the “decrease of SGLT1 mediated uptake of 10 μM [14C]AMG” value ([2]; wildtype mice) was “significantly inhibited”, the “down-regulation of hSGLT1 mediated AMG uptake” value ([3]; 5 mM) was about 30% and the “down-regulation of hSGLT1 mediated AMG uptake” value ([3]; 15 mM) was about 40%.

For “glutamine-serine-proline [QSP, reference compound]”, the “inhibition of SGLT1 mediated transport” value ([1]; 50 nM tripeptide, no AMG injected) was “inhibition”, the “effect on hSGLT1 expression” value ([1]; 250 μM intracellular AMG) was “abolished” and the IC50 ([1]; without injection of AMG (intracellular AMG <10 μM), read-out: IC50 for down-regulation of hSGLT1-mediated AMG uptake) was 0.2 nM. For the same molecule, the “uptake of 5 μM [3H]uridine expressed by hCNT1” value [4] was “not able to inhibit”, the “uptake of 5 μM [3H]uridine expressed by hCNT3” value [5] was “not able to inhibit” and the “decrease of phlorizin inhibited uptake of 10 μM [14C]AMG into everted jejunum” value [6] was “no significant effect”. For the same molecule, the “decrease of SGLT1 mediated uptake of 10 μM [14C]AMG” value ([2]; wildtype mice) was “no significant effect”, the “inhibition of hSGLT1 expression in oocytes” value ([7]; 200 nM QSP, intracellular AMG <10 μM) was 40-50% and the “inhibition of hSGLT1 expression in oocytes after injection of AMG” value ([7]; 200 nM QSP, intracellular AMG higher than 250 μM) was “abolished”. For the same molecule, the “down-regulation of hSGLT1 at raised intracellular AMG” value ([7]; intracellular AMG higher than 0.1 mM) was “blunted”.

In the case of “SDSDRIEP [octapeptide corresponding to a particular motif of human RS1, reference compound]”, the “uptake of 5 μM [3H]uridine expressed by hCNT1” value [4] is reported as “decreased” and the “uptake of 5 μM [3H]uridine expressed by hCNT3” value [5] is reported as “decreased”.

B1: mRS1-Reg(S19E): mRS1-Reg, first/N-terminal QSP motive replaced by QEP (SEQ ID No. 10), coupled to hydrogel nanoparticles for gavage (protein)
chain: PSGQEPEVGSPTSLARSVSASVCAIKPGDPNSIESLAMEATKASAEFQTNSKKTDPPPLQVLPDLASSAEQSLAMPFH
modifications: coupled to hydrogel nanoparticles; mRS1-Reg(S19E)
For B1, the “inhibition of phlorizin-inhibited uptake of 10 μM AMG” value ([8]; RS1−/− mice) was 26%, the “inhibition of phlorizin-inhibited uptake of 1 mM AMG” value ([8]; RS1−/− mice) was 30% and the “decrease of uptake of 1 mM AMG (high intracellular glucose)” value ([8]; wild type mice) was 40%. The “uptake of 10 μM AMG (low intracellular glucose)” value ([8]; wild type mice) was “not altered”.

B2: hRS1-Reg(S45A): hRS1-Reg with serine 45 replaced by alanine to prevent phosphorylation (protein)
chain: SSGQSPDVGNPMSLARSVSASVCPIKPSDADRIEPKAVKALKASAEFQLNSEKKEHLSLQDLSDHASSADHAPTDQSPAMPMQ
modifications: left off: small tags and cut ends
notes: hRS1-Reg with serine 45 replaced by alanine to prevent phosphorylation
For B2, the “affinity for down-regulation of hSGLT1 compared with hRS1-Reg wildtype” value ([1]; no AMG injected) was “similar” and the “effect of intracellular AMG on the affinity for down-regulation of hSGLT1” value [1] was “abolished”.

B3: hRS1-Reg(S45E): hRS1-Reg with serine 45 replaced by glutamate to mimick phosphorylation (protein)
chain: SSGQSPDVGNPMSLARSVSASVCPIKPSDEDRIEPKAVKALKASAEFQLNSEKKEHLSLQDLSDHASSADHAPTDQSPAMPMQ
modifications: left off: small tags and cut ends
notes: hRS1-Reg with serine 45 replaced by glutamate to mimick phosphorylation
With B3 the “affinity for down-regulation of hSGLT1 compared with hRS1-Reg wildtype” value ([1]; no AMG injected) was “increases affinity”, the “effect of intracellular AMG on the affinity for down-regulation of hSGLT1” value [1] was “abolished” and the “affinity for down-regulation of hCNT1 compared with hRS1-Reg wildtype” value [4] was “similar”. The “effect of mimicking phosphorylation in position 45 on affinity for down-regulation of hCNT1” value [4] was “decreases affinity”.

B4: hRS1-Reg(S20A): hRS1-Reg mutant preventing phosphorylation at serine in position 20 (protein)
chain: SSGQAPDVGNPMSLARSVSASVCPIKPSDSDRIEPKAVKALKASAEFQLNSEKKEHLSLQDLSDHASSADHAPTDQSPAMPMQ
modifications: left off: small tags and cut ends
For B4, the “affinity for down-regulation of hSGLT1 compared with hRS1-Reg wildtype” value ([1]; no AMG injected) was “does not alter the affinity”.

B5: hRS1-Reg(S20E): hRS1-Reg, the first/N-terminal QSP motive is replaced by QEP (SEQ ID No. 9) (protein)
chain: SSGQEPDVGNPMSLARSVSASVCPIKPSDSDRIEPKAVKALKASAEFQLNSEKKEHLSLQDLSDHASSADHAPTDQSPAMPMQ
modifications: hRS1-Reg(S20E)
With B5 the “affinity for down-regulation of hSGLT1 higher than hRS1-Reg wildtype” value ([1]; high intracellular glucose (AMG ~250 μM)) was 15 Mill and the “increase of affinity (decrease of IC50) for down-regulation of hSGLT1 at high versus low intracellular AMG” value ([1]; intracellular AMG ~250 μM versus low) was 300 fold.
